According to the supplement of paper PMC7017272:
± gives the standard deviation of the averaged measurements.

Experiments:
Settings in all cases: treatment time: 3 days
UT-SCC-24A [1] = experiment: maximal % inhibition of viability relative to DMSO; higher = stronger effect
Method: (§1)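 HNSCC cell lines (500 cells/well, 384-well) were cultured on plastic, on top of (2D) or embedded (3D) in Matrigel or human leiomyoma matrix Myogel (500 ug/mL; Myogel 3D mixed with rat collagen I). Cells were treated for 3 days with 5 ten-fold concentrations of each drug, and viability was read by CellTiter-Glo. Viability was normalised to DMSO (0% inhibition) and 100 uM benzethonium chloride (100% inhibition) controls and fitted with the FIMM DSRT pipeline to give IC50 (nM), maximal % inhibition and the drug sensitivity score (DSS). Suffixes _1/_2/_3 on drug names are replicates.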

UT-SCC-106A [2] = experiment: drug sensitivity score (DSS); higher = more sensitive; extreme values may be limits of the assay
In short: (§2)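 Using 384-well plates, 500 cells/well of HPV-negative HNSCC cell lines were grown on plastic, on 500 µg/mL Matrigel or Myogel coatings, or embedded in Matrigel or Myogel with rat collagen I. They were treated with compounds at five 10-fold concentrations for 3 days, and luminescence from CellTiter-Glo 2.0 was normalised to vehicle (0.1% DMSO) and cell-killing control wells. IC50, maximal inhibition and drug sensitivity score were derived from percent-inhibition dose–response curves in the FIMM pipeline.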

UT-SCC-14 [3] = experiment: as above
In short: as §2

UT-SCC-24B = experiment: as above
In short: as §2

UT-SCC-28 = experiment: as above
In short: as §2

UT-SCC-40 = experiment: as above
In short: as §2

UT-SCC-42A [4] = experiment: as above
In short: as §2

UT-SCC-42B [5] = experiment: as above
In short: as §2

UT-SCC-44 [6] = experiment: as above
In short: as §2

UT-SCC-73 [7] = experiment: as above
In short: as §2

UT-SCC-81 = experiment: as above
In short: as §2

UT-SCC-8 [8] = experiment: as above
In short: as §2

UT-SCC-106A [9] = experiment: relative IC50 (midpoint of the fitted curve; maximal inhibition may be below 50%); higher = less potent
In short: as §2

UT-SCC-14 [10] = experiment: as above
In short: as §2

UT-SCC-42A [11] = experiment: as above
In short: as §2

UT-SCC-42B [12] = experiment: as above
In short: as §2

UT-SCC-44 [13] = experiment: as above
In short: as §2

UT-SCC-73 [14] = experiment: as above
In short: as §2

UT-SCC-8 [15] = experiment: as above
In short: as §2

UT-SCC-24A [16] = experiment: relative IC50 (midpoint of the fitted curve; maximal inhibition may be below 50%); higher = less potent
Method: as §1

[17] = culture condition: embedded in Matrigel
[18] = culture condition: embedded in Myogel + collagen I
[19] = culture condition: on top of Matrigel
[20] = culture condition: on top of Myogel
[21] = culture condition: plastic 2D (no matrix)

## C=CC(=O)Nc1cc2c(Nc3ccc(F)c(Cl)c3)ncnc2cc1OCCCN1CCOCC1 [Canertinib]
UT-SCC-24A [1]; [17]
  maximal % inhibition of viability: 99.57 ± 0.38%
UT-SCC-24A [1]; [18]
  maximal % inhibition of viability: 99.17 ± 0.74%
UT-SCC-24A [1]; [19]
  maximal % inhibition of viability: 99.7 ± 0.36%
UT-SCC-24A [1]; [20]
  maximal % inhibition of viability: 99 ± 0.87%
UT-SCC-24A [1]; [21]
  maximal % inhibition of viability: 99.5 ± 0.62%
UT-SCC-106A [2]; [17]
  drug sensitivity score: 15.8 ± 1.5 DSS
UT-SCC-106A [2]; [18]
  drug sensitivity score: 5.8 ± 0.1 DSS
UT-SCC-106A [2]; [19]
  drug sensitivity score: 19.2 ± 1.5 DSS
UT-SCC-106A [2]; [20]
  drug sensitivity score: 7.13 ± 0.71 DSS
UT-SCC-106A [2]; [21]
  drug sensitivity score: 21 ± 0.93 DSS
UT-SCC-14 [3]; [17]
  drug sensitivity score: 27 ± 0.3 DSS
UT-SCC-14 [3]; [18]
  drug sensitivity score: 11.2 ± 2.8 DSS
UT-SCC-14 [3]; [19]
  drug sensitivity score: 26.6 ± 0.94 DSS
UT-SCC-14 [3]; [20]
  drug sensitivity score: 16.5 ± 2.1 DSS
UT-SCC-14 [3]; [21]
  drug sensitivity score: 25.6 ± 1.9 DSS
UT-SCC-24B; [17]
  drug sensitivity score: 17.8 ± 0.7 DSS
UT-SCC-24B; [18]
  drug sensitivity score: 9.13 ± 0.25 DSS
UT-SCC-24B; [19]
  drug sensitivity score: 18.1 ± 0.57 DSS
UT-SCC-24B; [20]
  drug sensitivity score: 9.17 ± 0.12 DSS
UT-SCC-24B; [21]
  drug sensitivity score: 26.2 ± 0.55 DSS
UT-SCC-28; [17]
  drug sensitivity score: 4.2 ± 0.5 DSS
UT-SCC-28; [18]
  drug sensitivity score: 8.6 ± 0.27 DSS
UT-SCC-28; [19]
  drug sensitivity score: 7.8 ± 0.6 DSS
UT-SCC-28; [21]
  drug sensitivity score: 7 ± 0.56 DSS
UT-SCC-40; [17]
  drug sensitivity score: 27.4 ± 1.1 DSS
UT-SCC-40; [18]
  drug sensitivity score: 10.4 ± 1.9 DSS
UT-SCC-40; [19]
  drug sensitivity score: 26.2 ± 0.62 DSS
UT-SCC-40; [20]
  drug sensitivity score: 10 ± 1.6 DSS
UT-SCC-40; [21]
  drug sensitivity score: 18.6 ± 0.5 DSS
UT-SCC-42A [4]; [17]
  drug sensitivity score: 17.1 ± 0.32 DSS
UT-SCC-42A [4]; [18]
  drug sensitivity score: 7.67 ± 1.3 DSS
UT-SCC-42A [4]; [19]
  drug sensitivity score: 18.4 ± 1.2 DSS
UT-SCC-42A [4]; [20]
  drug sensitivity score: 9.8 ± 0.98 DSS
UT-SCC-42A [4]; [21]
  drug sensitivity score: 17.9 ± 0.98 DSS
UT-SCC-42B [5]; [17]
  drug sensitivity score: 23.7 ± 2.4 DSS
UT-SCC-42B [5]; [19]
  drug sensitivity score: 16.9 ± 2 DSS
UT-SCC-42B [5]; [20]
  drug sensitivity score: 6.83 ± 0.35 DSS
UT-SCC-42B [5]; [21]
  drug sensitivity score: 12 ± 1.2 DSS
UT-SCC-44 [6]; [17]
  drug sensitivity score: 4 ± 0.3 DSS
UT-SCC-44 [6]; [18]
  drug sensitivity score: 6.57 ± 1.5 DSS
UT-SCC-44 [6]; [19]
  drug sensitivity score: 8.2 ± 0.27 DSS
UT-SCC-44 [6]; [20]
  drug sensitivity score: 7.47 ± 2.1 DSS
UT-SCC-44 [6]; [21]
  drug sensitivity score: 7.63 ± 1.1 DSS
UT-SCC-73 [7]; [17]
  drug sensitivity score: 7.6 ± 1.1 DSS
UT-SCC-73 [7]; [18]
  drug sensitivity score: 7.73 ± 2.5 DSS
UT-SCC-73 [7]; [19]
  drug sensitivity score: 8.83 ± 0.23 DSS
UT-SCC-73 [7]; [20]
  drug sensitivity score: 8.53 ± 0.75 DSS
UT-SCC-73 [7]; [21]
  drug sensitivity score: 8.87 ± 0.15 DSS
UT-SCC-81; [17]
  drug sensitivity score: 29.4 ± 1.3 DSS
UT-SCC-81; [18]
  drug sensitivity score: 9.43 ± 3.1 DSS
UT-SCC-81; [19]
  drug sensitivity score: 27.53 ± 0.12 DSS
UT-SCC-81; [20]
  drug sensitivity score: 8.9 ± 0.27 DSS
UT-SCC-81; [21]
  drug sensitivity score: 26.1 ± 0.51 DSS
UT-SCC-8 [8]; [17]
  drug sensitivity score: 29.83 ± 0.058 DSS
UT-SCC-8 [8]; [18]
  drug sensitivity score: 4.77 ± 0.81 DSS
UT-SCC-8 [8]; [19]
  drug sensitivity score: 29.7 ± 0.64 DSS
UT-SCC-8 [8]; [20]
  drug sensitivity score: 11.6 ± 2.1 DSS
UT-SCC-8 [8]; [21]
  drug sensitivity score: 29 ± 0.85 DSS
UT-SCC-106A [9]; [17]
  relative IC50: 319 nM
UT-SCC-106A [9]; [18]
  relative IC50: 2830 nM
UT-SCC-106A [9]; [19]
  relative IC50: 171 nM
UT-SCC-106A [9]; [20]
  relative IC50: 2270 nM
UT-SCC-106A [9]; [21]
  relative IC50: 126 nM
UT-SCC-14 [10]; [17]
  relative IC50: 49 nM
UT-SCC-14 [10]; [18]
  relative IC50: 970 nM
UT-SCC-14 [10]; [19]
  relative IC50: 59.1 nM
UT-SCC-14 [10]; [20]
  relative IC50: 310 nM
UT-SCC-14 [10]; [21]
  relative IC50: 61.2 nM
UT-SCC-42A [11]; [17]
  relative IC50: 253 nM
UT-SCC-42A [11]; [18]
  relative IC50: 2020 nM
UT-SCC-42A [11]; [19]
  relative IC50: 205 nM
UT-SCC-42A [11]; [20]
  relative IC50: 1270 nM
UT-SCC-42A [11]; [21]
  relative IC50: 238 nM
UT-SCC-42B [12]; [17]
  relative IC50: 75.9 nM
UT-SCC-42B [12]; [19]
  relative IC50: 299 nM
UT-SCC-42B [12]; [20]
  relative IC50: 2470 nM
UT-SCC-42B [12]; [21]
  relative IC50: 808 nM
UT-SCC-44 [13]; [17]
  relative IC50: 3360 nM
UT-SCC-44 [13]; [18]
  relative IC50: 2360 nM
UT-SCC-44 [13]; [19]
  relative IC50: 1660 nM
UT-SCC-44 [13]; [20]
  relative IC50: 2050 nM
UT-SCC-44 [13]; [21]
  relative IC50: 1910 nM
UT-SCC-73 [14]; [17]
  relative IC50: 2120 nM
UT-SCC-73 [14]; [18]
  relative IC50: 2070 nM
UT-SCC-73 [14]; [19]
  relative IC50: 1660 nM
UT-SCC-73 [14]; [20]
  relative IC50: 1750 nM
UT-SCC-73 [14]; [21]
  relative IC50: 1650 nM
UT-SCC-8 [15]; [17]
  relative IC50: 34.9 nM
UT-SCC-8 [15]; [18]
  relative IC50: 3640 nM
UT-SCC-8 [15]; [19]
  relative IC50: 35.7 nM
UT-SCC-8 [15]; [20]
  relative IC50: 912 nM
UT-SCC-8 [15]; [21]
  relative IC50: 39.3 nM
UT-SCC-24A [16]; [17]
  relative IC50: 38.1 nM
UT-SCC-24A [16]; [18]
  relative IC50: 1010 nM
UT-SCC-24A [16]; [19]
  relative IC50: 84.8 nM
UT-SCC-24A [16]; [20]
  relative IC50: 1630 nM
UT-SCC-24A [16]; [21]
  relative IC50: 83.1 nM
